#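 Each compound was tested at five concentrations against cells in 96-well plates for 48 hours. The concentration for 50% growth inhibition is given as GI50.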 Active and inactive are the calls of the source. Rule as the data show it: active = GI50 up to about 1.1 µM and inactive = higher.
# How the values were obtained:
# Experiment in all cases: DTP human tumour cell line panel, 48 h
# HCT-15 = system: HCT-15
# NCI-H226 = system: NCI-H226
# IGROV-1 = system: IGROV-1
# RPMI-8226 = system: RPMI-8226
# EKVX = system: EKVX
# A549 = system: A549
# UACC-257 = system: UACC-257
# SNB-75 = system: SNB-75
# HT-29 = system: HT-29
# HCC 2998 = system: HCC 2998
# M14 = system: M14
# U-251 = system: U-251
# HCT-116 = system: HCT-116
# HL-60 = system: HL-60
# SW-620 = system: SW-620
# RXF 393 = system: RXF 393
# SF-539 = system: SF-539
# SN12C = system: SN12C
# UACC-62 = system: UACC-62
# OVCAR-3 = system: OVCAR-3
smiles,measurement,setting,value
OCc1cc2ccncc2c2c1[nH]c1ccccc12,GI50,HCT-15,5.64 µM
same,GI50,NCI-H226,2.13 µM (inactive)
same,GI50,IGROV-1,2.73 µM (inactive)
same,GI50,RPMI-8226,6.31 µM (inactive)
same,GI50,EKVX,3.91 µM (inactive)
same,GI50,A549,4.37 µM (inactive)
same,GI50,UACC-257,14.8 µM (inactive)
same,GI50,SNB-75,4.51 µM (inactive)
same,GI50,HT-29,4.58 µM (inactive)
same,GI50,HCC 2998,2.44 µM (inactive)
same,GI50,M14,13.2 µM (inactive)
same,GI50,U-251,6.25 µM (inactive)
same,GI50,HCT-116,3.74 µM (inactive)
same,GI50,HL-60,4.84 µM (inactive)
same,GI50,SW-620,3.29 µM (inactive)
same,GI50,RXF 393,2.96 µM (inactive)
same,GI50,SF-539,3.72 µM (inactive)
same,GI50,SN12C,5.42 µM (inactive)
CCOC(=O)/C=C(\C)c1ccc(C)cc1C,GI50,HCT-15,29.9 µM
same,GI50,NCI-H226,> 100 µM (inactive)
same,GI50,IGROV-1,> 100 µM (inactive)
same,GI50,RPMI-8226,7.28 µM (inactive)
same,GI50,EKVX,> 100 µM (inactive)
same,GI50,A549,> 100 µM (inactive)
same,GI50,UACC-257,> 100 µM (inactive)
same,GI50,SNB-75,75.3 µM (inactive)
same,GI50,HT-29,> 100 µM (inactive)
same,GI50,HCC 2998,> 100 µM (inactive)
same,GI50,M14,> 100 µM (inactive)
same,GI50,U-251,> 100 µM (inactive)
same,GI50,HCT-116,> 100 µM (inactive)
same,GI50,HL-60,2.89 µM (inactive)
same,GI50,SW-620,17.8 µM (inactive)
same,GI50,RXF 393,14.4 µM (inactive)
same,GI50,SF-539,> 100 µM (inactive)
same,GI50,SN12C,39.8 µM (inactive)
CCOC(=O)NC(=O)c1cn(C2CCCCC2)c(=O)n(C)c1=O,GI50,HCT-15,> 100 µM
same,GI50,NCI-H226,> 100 µM (inactive)
same,GI50,IGROV-1,> 100 µM (inactive)
same,GI50,RPMI-8226,> 100 µM (inactive)
same,GI50,A549,> 100 µM (inactive)
same,GI50,UACC-257,> 100 µM (inactive)
same,GI50,SNB-75,> 100 µM (inactive)
same,GI50,HT-29,> 100 µM (inactive)
same,GI50,UACC-62,> 100 µM (inactive)
same,GI50,HCC 2998,> 100 µM (inactive)
same,GI50,M14,> 100 µM (inactive)
same,GI50,U-251,> 100 µM (inactive)
same,GI50,HCT-116,> 100 µM (inactive)
same,GI50,HL-60,> 100 µM (inactive)
same,GI50,SW-620,> 100 µM (inactive)
same,GI50,OVCAR-3,> 100 µM (inactive)
same,GI50,RXF 393,> 100 µM (inactive)
same,GI50,SF-539,> 100 µM (inactive)
same,GI50,SN12C,> 100 µM (inactive)
C/C(=N\NC(=O)c1ccncc1)c1cccc(C(F)(F)F)c1,GI50,HCT-15,> 10 µM
same,GI50,NCI-H226,> 10 µM (inactive)
same,GI50,IGROV-1,> 10 µM (inactive)
same,GI50,RPMI-8226,> 10 µM (inactive)
same,GI50,EKVX,> 10 µM (inactive)
same,GI50,A549,> 10 µM (inactive)
same,GI50,UACC-257,> 10 µM (inactive)
same,GI50,SNB-75,> 10 µM (inactive)
same,GI50,HT-29,> 10 µM (inactive)
same,GI50,UACC-62,> 10 µM (inactive)
same,GI50,HCC 2998,> 10 µM (inactive)
same,GI50,M14,> 10 µM (inactive)
same,GI50,U-251,> 10 µM (inactive)
same,GI50,HL-60,> 10 µM (inactive)
same,GI50,SW-620,> 10 µM (inactive)
same,GI50,SF-539,> 10 µM (inactive)
same,GI50,SN12C,> 10 µM (inactive)
CC1=NN(c2ccccc2)C(=O)C1=C1SCCCS1,GI50,HCT-15,31.9 µM
same,GI50,NCI-H226,29.3 µM (inactive)
same,GI50,IGROV-1,30.2 µM (inactive)
same,GI50,RPMI-8226,19.7 µM (inactive)
same,GI50,EKVX,30.1 µM (inactive)
same,GI50,A549,25.4 µM (inactive)
same,GI50,UACC-257,28.2 µM (inactive)
same,GI50,SNB-75,> 100 µM (inactive)
same,GI50,HT-29,32 µM (inactive)
same,GI50,UACC-62,17.3 µM (inactive)
same,GI50,HCC 2998,37 µM (inactive)
same,GI50,M14,49.4 µM (inactive)
same,GI50,U-251,18.1 µM (inactive)
same,GI50,HCT-116,13.8 µM (inactive)
same,GI50,HL-60,19.5 µM (inactive)
same,GI50,SW-620,13.2 µM (inactive)
same,GI50,OVCAR-3,22.3 µM (inactive)
same,GI50,RXF 393,28.5 µM (inactive)
same,GI50,SN12C,28.2 µM (inactive)
C/C(=N\NC(=S)N(C)C)c1nc2cccnc2[nH]1,GI50,HCT-15,0.443 µM
same,GI50,NCI-H226,0.399 µM (active)
same,GI50,IGROV-1,0.804 µM (active)
same,GI50,RPMI-8226,2.07 µM (inactive)
same,GI50,EKVX,0.475 µM (active)
same,GI50,A549,0.792 µM (active)
same,GI50,UACC-257,2.01 µM (inactive)
same,GI50,SNB-75,3.18 µM (inactive)
same,GI50,HT-29,0.548 µM (active)
same,GI50,UACC-62,0.396 µM (active)
same,GI50,HCC 2998,0.71 µM (active)
same,GI50,M14,0.547 µM (active)
same,GI50,U-251,0.494 µM (active)
same,GI50,HCT-116,0.893 µM (active)
same,GI50,HL-60,0.323 µM (active)
same,GI50,SW-620,0.883 µM (active)
same,GI50,RXF 393,0.596 µM (active)
same,GI50,SF-539,0.536 µM (active)
same,GI50,SN12C,1.16 µM (inactive)
N=C(N)c1csc([C@@H]2O[C@H](CO)[C@@H](O)[C@H]2O)n1,GI50,HCT-15,> 100 µM
same,GI50,NCI-H226,89.5 µM (inactive)
same,GI50,IGROV-1,> 100 µM (inactive)
same,GI50,RPMI-8226,> 100 µM (inactive)
same,GI50,EKVX,> 100 µM (inactive)
same,GI50,A549,> 100 µM (inactive)
same,GI50,UACC-257,> 100 µM (inactive)
same,GI50,SNB-75,80.9 µM (inactive)
same,GI50,HCC 2998,> 100 µM (inactive)
same,GI50,M14,> 100 µM (inactive)
same,GI50,U-251,> 100 µM (inactive)
same,GI50,HCT-116,> 100 µM (inactive)
same,GI50,HL-60,> 100 µM (inactive)
same,GI50,SW-620,> 100 µM (inactive)
same,GI50,RXF 393,> 100 µM (inactive)
same,GI50,SF-539,> 100 µM (inactive)
same,GI50,SN12C,> 100 µM (inactive)
N#C/C(=C/NC(=S)c1ccncc1)C(N)=O,GI50,HCT-15,> 100 µM
same,GI50,NCI-H226,> 100 µM (inactive)
same,GI50,IGROV-1,> 100 µM (inactive)
same,GI50,EKVX,> 100 µM (inactive)
same,GI50,A549,> 100 µM (inactive)
same,GI50,UACC-257,> 100 µM (inactive)
same,GI50,SNB-75,> 100 µM (inactive)
same,GI50,HT-29,> 100 µM (inactive)
same,GI50,UACC-62,> 100 µM (inactive)
same,GI50,HCC 2998,> 100 µM (inactive)
same,GI50,M14,> 100 µM (inactive)
same,GI50,U-251,> 100 µM (inactive)
same,GI50,HCT-116,> 100 µM (inactive)
same,GI50,HL-60,> 100 µM (inactive)
same,GI50,SW-620,> 100 µM (inactive)
same,GI50,OVCAR-3,> 100 µM (inactive)
same,GI50,RXF 393,> 100 µM (inactive)
same,GI50,SF-539,> 100 µM (inactive)
same,GI50,SN12C,> 100 µM (inactive)
Cc1c2cc[n+](C)cc2c(COC2OC(CO)C(O)C2O)c2c3ccccc3n(C)c12 (configuration not stated),GI50,HCT-15,> 100 µM
same,GI50,NCI-H226,28.6 µM (inactive)
same,GI50,IGROV-1,> 100 µM (inactive)
same,GI50,RPMI-8226,99.5 µM (inactive)
same,GI50,EKVX,> 95.5 µM (inactive)
same,GI50,A549,74.3 µM (inactive)
same,GI50,UACC-257,> 100 µM (inactive)
same,GI50,SNB-75,25 µM (inactive)
same,GI50,HT-29,> 100 µM (inactive)
same,GI50,UACC-62,> 96.8 µM (inactive)
same,GI50,HCC 2998,> 100 µM (inactive)
same,GI50,U-251,48.6 µM (inactive)
same,GI50,HCT-116,> 100 µM (inactive)
same,GI50,HL-60,> 100 µM (inactive)
same,GI50,SW-620,> 100 µM (inactive)
same,GI50,OVCAR-3,> 100 µM (inactive)
same,GI50,RXF 393,> 100 µM (inactive)
same,GI50,SF-539,90.4 µM (inactive)
same,GI50,SN12C,6.85 µM (inactive)
CC1=NN(C(=O)c2ccccc2)C(=O)C1/N=N/c1ccccc1C(=O)O (configuration not stated),GI50,HCT-15,4.85 µM
same,GI50,NCI-H226,9.46 µM (inactive)
same,GI50,IGROV-1,4.14 µM (inactive)
same,GI50,RPMI-8226,4.36 µM (inactive)
same,GI50,EKVX,> 100 µM (inactive)
same,GI50,A549,3.77 µM (inactive)
same,GI50,SNB-75,1.8 µM (inactive)
same,GI50,HT-29,52.1 µM (inactive)
same,GI50,UACC-62,3.1 µM (inactive)
same,GI50,HCC 2998,19.8 µM (inactive)
same,GI50,U-251,4.79 µM (inactive)
same,GI50,HCT-116,3.24 µM (inactive)
same,GI50,HL-60,3.53 µM (inactive)
same,GI50,SW-620,16.8 µM (inactive)
same,GI50,OVCAR-3,4.71 µM (inactive)
same,GI50,RXF 393,2.47 µM (inactive)
same,GI50,SF-539,3.78 µM (inactive)
same,GI50,SN12C,7.26 µM (inactive)
CNC(=O)OCc1nc(SC)n(C)c1CO,GI50,HCT-15,> 100 µM
same,GI50,NCI-H226,> 100 µM (inactive)
same,GI50,IGROV-1,> 100 µM (inactive)
same,GI50,RPMI-8226,> 100 µM (inactive)
same,GI50,EKVX,> 100 µM (inactive)
same,GI50,A549,> 100 µM (inactive)
same,GI50,UACC-257,> 100 µM (inactive)
same,GI50,SNB-75,> 100 µM (inactive)
same,GI50,HT-29,> 100 µM (inactive)
same,GI50,UACC-62,> 100 µM (inactive)
same,GI50,HCC 2998,> 100 µM (inactive)
same,GI50,U-251,> 100 µM (inactive)
same,GI50,HCT-116,> 100 µM (inactive)
same,GI50,HL-60,> 100 µM (inactive)
same,GI50,SW-620,> 100 µM (inactive)
same,GI50,OVCAR-3,> 100 µM (inactive)
same,GI50,RXF 393,> 100 µM (inactive)
same,GI50,SF-539,> 100 µM (inactive)
same,GI50,SN12C,> 100 µM (inactive)
